# Measured values from US9605064B2, “Methods and compositions for treatment of skin disorders” (AbbVie Biotechnology Ltd, priority 2006, dated 2017).
# Test system: patients with moderate to severe chronic plaque psoriasis
# Test: PASI response, Phase II 12-week placebo-controlled trial with 48-week extension
# Type: in vivo, human
# Conditions: for PASI 50 / PASI 90 / PASI 100: after 60 weeks of 40 mg eow; for patients with PASI<50 response, qualified for dosage escalation to weekly: on or after Week 24; for Number of Patients Who Qualified for Dosage Escalation: placebo/adalimumab 40 mg eow (n = 18)
# From the text: Efficacy outcome measures included PASI and PGA.
# The two primary clinical outcome measures used in this study were the psoriasis area and severity index (PASI) and the physician's global assessment (PGA). PASI improvement of greater than or equal to 75% (used as an endpoint in psoriasis clinical trials) at week 12 was the primary efficacy outcome measure for this study. PASI is a composite index indicating severity for three main signs of psoriatic plaques (erythema, scaling, and thickness), weighted by the amount of coverage of these plaques in four main body areas, i.e., head, trunk, upper extremities, and lower extremities. PASI scores, which range from 0-72, with higher scores indicating greater severity, were assessed at screening, baseline, week 1, week 2, week 4, week 8, week 12/early termination, and follow-up.
# Skin and safety outcomes were assessed up to Week 60.
# Analytical methods included the following: • Analyses of clinical data were performed on a modified intention-to-treat population (ITT). […] Patients whose dosages were increased on or after Week 24 were considered non-responders; • Patients with similar percentage PASI improvement across treatment arms were pooled into four strata: PASI<50, PASI 50-74, PASI 75-99, and PASI 100; and • Week-60 distribution of DLQI scores, mean DLQI scores, and mean change in DLQI from Week 0-60 were calculated within each stratum.
# Frequently used as an endpoint in psoriasis clinical trials, the PASI [25] was the primary efficacy outcome in this trial. PASI is a composite index indicating the severity of the three main signs of psoriatic plaques (i.e., erythema, scaling, and thickness) and is weighted by the amount of coverage of these plaques in the four main body areas (head, trunk, upper extremities, and lower extremities). PASI scores range from 0-72, with higher scores indicating greater disease severity. PASI was assessed at screening and baseline, at Weeks 1, 2, 4, 8, and 12/Early Termination, and at the final follow-up visit.
# At week 12, placebo patients received an 80-mg loading dose, then 40 mg every other week. […] Patients who receive the rescue therapy were considered non-responders in this analysis.
# [1] = Week 60, adalimumab 40 mg weekly, modified ITT, NRI
# [2] = Week 60, placebo/adalimumab 40 mg eow (adalimumab from Week 12), modified ITT, NRI
# [3] = baseline PASI ≧10 and DLQI >10, 40 mg eow, Week 12
# [4] = baseline PASI ≧10 and DLQI >10, 40 mg eow, Week 24
# [5] = baseline PASI ≧10 and DLQI >10, 40 mg eow, Week 36
# [6] = baseline PASI ≧10 and DLQI >10, 40 mg eow, Week 60
# [7] = baseline PASI ≧10 and DLQI >10, 40 mg weekly, Week 12
# [8] = baseline PASI ≧10 and DLQI >10, 40 mg weekly, Week 24
# [9] = baseline PASI ≧10 and DLQI >10, 40 mg weekly, Week 36
# [10] = baseline PASI ≧10 and DLQI >10, 40 mg weekly, Week 60
# [11] = baseline PASI ≧10 and DLQI >10, placebo/adalimumab 40 mg eow, Week 24
# [12] = baseline PASI ≧10 and DLQI >10, placebo/adalimumab 40 mg eow, Week 36
# [13] = baseline PASI ≧10 and DLQI >10, placebo/adalimumab 40 mg eow, Week 60
# [14] = dosage escalation group (eow to 40 mg weekly, n = 30), Week 60
# [15] = placebo/adalimumab 40 mg eow, Week 60, modified ITT, NRI
# [16] = weekly group, week 60, observed analysis
substance,measurement,setting,value
"Adalimumab: a human anti-TNF mAb, described in U.S. Pat. No. 6,090,382 as D2E7 (HUMIRA, Abbott Laboratories)",PASI 50 (% patients),[1],66%
same,Percentage of patients who achieved PASI 75,[1],64%
same,Percentage of patients who achieved PASI 90,[1],48%
same,Percentage of patients who achieved PASI 100,"Week 60, placebo/adalimumab 40 mg eow (adalimumab from Week 12), NRI",19%
same,PASI 50 (% patients),[2],64%
same,Percentage of patients who achieved PASI 75,[2],45%
same,Percentage of patients who achieved PASI 90,[2],40%
same,PASI 75 response rate,[3],69 % of Patients
same,PASI 90 response rate,[3],39 % of Patients
same,PASI 75 response rate,[4],77 % of Patients
same,PASI 90 response rate,[4],54 % of Patients
same,PASI 75 response rate,[5],73 % of Patients
same,PASI 90 response rate,[5],58 % of Patients
same,PASI 75 response rate,[6],65 % of Patients
same,PASI 90 response rate,[6],42 % of Patients
same,PASI 75 response rate,[7],74 % of Patients
same,PASI 90 response rate,[7],61 % of Patients
same,PASI 75 response rate,[8],78 % of Patients
same,PASI 90 response rate,[8],70 % of Patients
same,PASI 75 response rate,[9],74 % of Patients
same,PASI 90 response rate,[9],65 % of Patients
same,PASI 75 response rate,[10],65 % of Patients
same,PASI 90 response rate,[10],48 % of Patients
same,PASI 75 response rate,[11],50 % of Patients
same,PASI 90 response rate,[11],28 % of Patients
same,PASI 75 response rate,[12],50 % of Patients
same,PASI 90 response rate,[12],50 % of Patients
same,PASI 75 response rate,[13],44 % of Patients
same,PASI 90 response rate,[13],39 % of Patients
same,PASI 50 response rate,[14],40%
same,PASI 75 response rate,[14],~20%
same,PASI 90 response rate,[14],0%
same,PASI 75 response rate,"dosage escalation group (eow to 40 mg weekly, n = 30), Week 60, listed as adalimumab",17%
same,PASI 50 response,"eow arm, Week 24",73
same,PASI 75 response rate,"no prior use, 40 mg eow, Week 24",65 % Patients
same,PASI 75 response rate,"no prior use, 40 mg eow, Week 60",48 % Patients
same,PASI 75 response rate,"no prior use, 40 mg weekly, Week 24",76 % Patients
same,PASI 75 response rate,"no prior use, 40 mg weekly, Week 60",64 % Patients
same,PASI 50,no prior use,65%
same,PASI 90,no prior use,30%
same,PASI 100,no prior use,17%
same,PASI 75 response rate,"no prior use, placebo/adalimumab 40 mg eow, Week 24",56 % Patients
same,PASI 75 response rate,"no prior use, placebo/adalimumab 40 mg eow, Week 60",40 % Patients
same,"patients with PASI<50 response, qualified for dosage escalation to weekly",of the 45 patients in adalimumab eow group,12 patients
same,"patients with PASI<50 response, qualified for dosage escalation to weekly",of the 47 patients in placebo/adalimumab eow group,18 patients
same,patients with PASI≧75 after dose escalation,"original adalimumab 40 mg every other week arm (two out of nine), week 60",22%
same,patients with PASI≧75 after dose escalation,"original placebo/adalimumab 40 mg every other week arm (two out of thirteen), week 60",15%
same,Number of Patients Who Qualified for Dosage Escalation,Week 24,10
same,Number of Patients Who Qualified for Dosage Escalation,Week 28,2
same,Number of Patients Who Qualified for Dosage Escalation,Week 32,2
same,Number of Patients Who Qualified for Dosage Escalation,Week 44,1
same,Number of Patients Who Qualified for Dosage Escalation,Week 52,3
same,Number of Patients Who Qualified for Dosage Escalation,Week 60,0
same,Overall PASI 75 response rate,"placebo/adalimumab 40 mg eow, Week 24, modified ITT, NRI",55 % of Patients
same,Overall PASI 75 response rate,"placebo/adalimumab 40 mg eow, Week 36, modified ITT, NRI",62 % of Patients
same,Overall PASI 75 response rate,[15],45 % of Patients
same,PASI 50 response rate,[15],57 % Patients
same,PASI 90 response rate,[15],40 % Patients
same,PASI 100 response rate,[15],19 % Patients
same,PASI 50 response,"placebo/eow arm, Week 24",77
same,PASI 50,prior biologic use,63%
same,PASI 90,prior biologic use,38%
same,PASI 100,prior biologic use,13%
same,PASI 75 response rate,"prior biological use, 40 mg eow, Week 24",50 % Patients
same,PASI 75 response rate,"prior biological use, 40 mg eow, Week 60",63 % Patients
same,PASI 75 response rate,"prior biological use, 40 mg weekly, Week 24",67 % Patients
same,PASI 75 response rate,"prior biological use, 40 mg weekly, Week 60",78 % Patients
same,PASI 75 response rate,"prior biological use, placebo/adalimumab 40 mg eow, Week 24",63 % Patients
same,PASI 75 response rate,"prior biological use, placebo/adalimumab 40 mg eow, Week 60",63 % Patients
same,PASI 75 response rate,"prior systemic use, 40 mg eow, Week 24",68 % Patients
same,PASI 75 response rate,"prior systemic use, 40 mg eow, Week 60",68 % Patients
same,PASI 75 response rate,"prior systemic use, 40 mg weekly, Week 24",73 % Patients
same,PASI 75 response rate,"prior systemic use, 40 mg weekly, Week 60",64 % Patients
same,PASI 50,prior systemic use,68%
same,PASI 90,prior systemic use,37%
same,PASI 100,prior systemic use,11%
same,PASI 75 response rate,"prior systemic use, placebo/adalimumab 40 mg eow, Week 24",47 % Patients
same,PASI 75 response rate,"prior systemic use, placebo/adalimumab 40 mg eow, Week 60",41 % Patients
same,PASI 50 response,"weekly arm, Week 24",80
same,PASI 75-99 response rate,[16],38
same,PASI 100 response rate,[16],26
